The values that follow come from patent US8461183B2, “PPAR agonist compounds, preparation and uses” (Genfit, priority 2008, dated 2013).

For one assay, the target named is T1, hPPARδ (Homo sapiens, UniProt Q03181).
T1 construct: corresponding to the DEF domains (structural elements of the promoter of the PPARs: D=hinge, EF=ligand fixation domain and AF2 fixation site); expressed in transfected cells; host or cells: COS-7 (monkey kidney fibroblasts)
T1 sequence (Q03181 211-439 limits assumed): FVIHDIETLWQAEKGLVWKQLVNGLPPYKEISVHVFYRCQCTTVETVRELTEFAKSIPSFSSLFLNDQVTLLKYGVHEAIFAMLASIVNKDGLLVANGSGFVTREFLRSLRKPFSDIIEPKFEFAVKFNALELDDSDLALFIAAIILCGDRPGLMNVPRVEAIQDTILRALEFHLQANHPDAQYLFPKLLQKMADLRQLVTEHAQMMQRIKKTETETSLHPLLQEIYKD
Put plainly: Gal4-hPPARδ chimera transactivation (luciferase) in COS-7 cells. It counts as cell-based. The settings on record: COS-7 cells, Gal4-hPPARδ, 24 hours; for EC50: luciferase, read-out: PPARδ EC50; for Emax: relative to maximum activation obtained with GW501516, read-out: PPARδ TOP % (maximum activation). Put shortly:
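COS-7 cells transfected with Gal4-DBD fused to human PPARγ or PPARδ DEF (hinge/ligand-binding) domain plus Gal4(RE)_TkpGL3 luciferase reporter (1:10).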

Assay [1] has as its system 3T3-L1 murine pre-adipocytes. Nature of the assay: PPARγ functional effect: adipogenesis in 3T3-L1 pre-adipocytes (triglycerides, adiponectin). The settings on record: 3T3-L1, 9 days of treatment, 30 nM to 30 μM. The format is cell-based, Mus musculus. On the procedure: The functional effect of activation of PPARγ is evaluated in vitro on a line of pre-adipocyte cells 3T3-L1 (Thompson G M et al., 2004) by measuring the concentration of intracellular triglycerides and the concentration of adiponectin secreted in the culture medium after 9 days of treatment with the compounds according to the invention.
At confluence, the cells were then rinsed with PBS (Phosphate Buffered Saline solution) and the culture medium was replaced with DMEM 4.5 g/L glucose (10% FCS, 1% L-glutamine, 100 units/mL penicillin and 100 μg/mL streptomycin, 0.25 mM) containing a cocktail for initiation of adipocyte differentiation (IBMX (3-isobutyl-1-methylxanthine Sigma; 17018), 0.1 μM dexamethasone (Sigma; D1756) and 0.4 μM of insulin (Sigma; I2643). The cells were also treated with the compounds according to the invention (1 μL of solubilized compound/mL of medium, 200 μL per well).
After 2 days of incubation, the cells were washed with PBS and the differentiation medium was replaced with DMEM 4.5 g/L of glucose supplemented with 10% FCS, 1% L-glutamine, 100 units/mL penicillin and 100 μg/mL streptomycin, 0.4 μM insulin, and the compounds according to the invention for the purpose of completing cellular differentiation and obtaining adipocytes. The medium was changed every 2 days until total differentiation. After culture for 9 days, the treatment was stopped by withdrawing the culture medium, which was stored for assaying secreted adiponectin. The cells were then washed twice with PBS and placed in isopropanol for membrane permeabilization. The content of intracellular triglycerides was evaluated immediately.
Quantification of intracellular triglycerides was performed with the “Triglyceride Enzymatic PAP1000” kit (bioMérieux; 61238) according to the supplier's recommendations. Secreted adiponectin was measured in the culture medium using the “Mouse Adiponectin/Acrp30 Elisa Kit” kit (R&D Systems; DY1119) according to the supplier's recommendations.

Take `COc1nc(-c2ccccc2)ccc1COc1ccc(OCC(=O)O)cc1` [Cpd 2, 2-(4-((2-methoxy-6-phenylpyridin-3-yl)methoxy)phenoxy)ethanoic acid]: on hPPARδ, the EC50 (commonly the midpoint of the concentration-response curve) stood at 2000 nM and the Emax turned out to be 109%.
In the case of `COc1nc(-c2ccccc2)ccc1CNc1ccc(OCC(=O)O)cc1` [Cpd 4, 2-(4-(((2-methoxy-6-phenylpyridin-3yl)methyl)amino)phenoxy)ethanoic acid], at hPPARδ, the 50% effective concentration (EC50) is 8670 nM and the Emax amounted to 115%.
`COc1nc(-c2ccccc2)ccc1CNc1ccc(CCC(=O)O)cc1` [Cpd 19, 3-(4-(((2-methoxy-6-phenylpyridin-3-yl)methyl)amino)phenyl)propanoic acid]: in assay [1], the “accumulation of triglycerides in adipocytes” value is recorded as “dose-dependent stimulation” and the secretion of adiponectin result is listed as “dose-dependent stimulation”. At hPPARδ, the EC50 amounted to 3130 nM and the Emax stood at 95.1%.
Regarding `COc1nc(-c2ccc(C(F)(F)F)cc2)ccc1COc1ccc(OCC(=O)O)cc1` [Cpd 24, 2-(4-((2-methoxy-6-(4-(trifluoromethyl)phenyl)pyridin-3-yl)methoxy)-phenoxy)ethanoic acid], in assay [1], the “accumulation of triglycerides in adipocytes” value is “dose-dependent stimulation” and the secretion of adiponectin result is recorded as “dose-dependent stimulation”. Also, at hPPARδ, the half-maximal effective concentration (EC50) was 784 nM and the Emax was 94.1%.
